Results reported in patent US20170202808A1, “PHARMACEUTICAL DOSAGE FORMS” (Novartis AG, priority 2014, published 2017).

Key:
[1] = drug substance without excipients
[2] = especially in its phosphate salt form
[3] = drug substance without MCC
[4] = especially in its phosphate salt form; remark: listed apart in the source

flowability, ffc (poorly flowable) [1]: 1.1
drug substance bulk density [2]: 0.1 to 0.3 g/mL
primary particle size [3]: ca. 4 micron
hygroscopicity [4]: hygroscopic
SMILES: N#Cc1ccc([C@H]2CCc3cncn32)c(F)c1 [compound of formula (1), 4-[(5R)-6,7-dihydro-5H-pyrrolo[1,2-c]imidazol-5-yl]-3-fluorobenzonitrile]
